# From PMC6384574, “Colistin Use in Patients with Chronic Kidney Disease: Are We Underdosing Patients?” (Molecules, 2019)
# Positions of bridges follow the written chain, without caps; N, C: chain ends. Non-standard residues stand in square brackets, D forms with d. Residues, ends and D or L forms follow the SMILES beside them. *: point of attachment. X1 = CC[C@H](C)CCCCC(=O)*; Dab = NCC[C@H](N)C(=O)O
# Key:
# [1] = Colistin plasma concentration at steady state (Css,avg) by HPLC in CMS-treated patients with CKD; assay type: in vivo, human
# Protocol: We conducted a prospective observational study in a cohort of patients with CKD and infections caused by extensively drug-resistant P. aeruginosa treated with intravenous CMS for at least 48 h. The study was carried out at Hospital del Mar, a tertiary care university hospital in Barcelona (Spain), from January 2010 to August 2018. The study was approved by the local ethics committee (Comité Ètic d’Investigació Clínica del Parc de Salut Mar. Approval number 2011/4501/I). Exclusion criteria were age <18 years, pregnancy, and breast-feeding during the study period. A pharmacy-generated alarm system was used to identify patients under CMS treatment. […]
# The dosage regimen and dose adjustments were determined by the treating physician. […]
# Blood samples were obtained just before the next dose on day 3–4 of the treatment. […] Concentrations of CMS and formed colistin in plasma were measured using a validated high-performance liquid chromatography (HPLC) method. The limit of quantification of the HPLC methods for colistin and CMS in plasma were 0.20 and 0.50 mg/L, respectively. As the plasma concentration-time profiles of formed colistin are almost flat, measured colistin concentrations were regarded as Css,avg. The percentage of patients achieving the therapeutic target defined as a Css,avg of 2 mg/L was also analyzed. […] We calculated the expected Css based on the formula of Nation et al..
# [2] = cited from earlier work
# Source text: Colistin use has reemerged in recent years for the treatment of multidrug-resistant Gram-negative infections, which has prompted the performance of a large number of clinical and PK studies of its use in the last decade. However, there is still little pharmacological information in patients at high risk of under- or overdosing, such as those with CKD. […] CMS, the pro-drug, is renally eliminated by glomerular filtration and active tubular secretion. Previ ... || Recent toxicodynamic studies performed in the general population indicate that the risk of nephrotoxicity in patients receiving CMS increases with plasma colistin concentration exceeding 2.5 mg/L [13, 15]. This point, together with the lack of information on the minimum inhibitory concentrations (MIC) at the beginning of CMS treatment, have led to consideration of an average Css,avg of 2 mg/L as a target when initiating therapy. The median Css,avg in this study was 0.9 mg/L, which is far below the above-mentioned recommended 2 mg/L [11] but is also below those reported in previous ... || Blood samples were obtained just before the next dose on day 3–4 of the treatment. […] Concentrations of CMS and formed colistin in plasma were measured using a validated high-performance liquid chromatography (HPLC) method. The limit of quantification of the HPLC methods for colistin and CMS in plasma were 0.20 and 0.50 mg/L, respectively. As the plasma concentration-time profiles of formed colistin are almost flat, measured colistin concentrations were regarded as Cs ...
# [3] = Worsened renal function (nephrotoxicity) at end of treatment, RIFLE criteria; settings: multivariate logistic regression
# Protocol: (§2) Patient data included demographic information, SOFA score [31], Charlson comorbidity index [32], CMS treatment (indication, daily and total cumulative dose measured in millions of IU and treatment duration). GFR at baseline and at EOT was calculated using the abbreviated Modification of Diet in Renal Disease equation (MDRD-4) [33]. WRF was defined as a decrease in GFR ≥25% and was classified according to the Risk, Injury, Failure, Loss of kidney function, and End-stage kidney disease (RIFLE) criteria [34]. Patients with WRF were followed up until GFR recovery or until hospital discharge. Information was collected on the concomitant use of other potential nephrotoxic drugs such as aminoglycosides, vancomycin, angiotensin II receptor blockers, angiotensin-converting enzyme (ACE) inhibitors, loop diuretics, intravenous dye, amphotericin B and non-steroidal anti-inflammatory drugs (NSAIDs), as well as the need for vasopressor drugs or discontinuation of CMS due to nephrotoxicity. Combination therapy with other antibiotics with potential activity or synergy with colistin was assessed.
# (§3) Dichotomous data were compared using a χ^2 or Fisher’s exact test. Normally distributed continuous data are expressed as means and standard deviations (SD), and were compared using the t-test. Otherwise, values are presented as means with interquartile range (IQR) and were compared using the Mann-Whitney U-test. The baseline and clinical characteristics of patients receiving different CMS doses were compared using the ANOVA or Kruskal-Wallis test. Multivariate analysis of risk factors for colistin-associated nephrotoxicity was conducted using logistic regression. Univariate analyses were performed separately for each of the risk factor variables to ascertain the odds ratio (OR) and 95% confidence interval (CI). All clinically important covariates and those with p < 0.3 in the univariate analyses were included in the multivariate analysis.
# [4] = tested on: extensively drug-resistant Pseudomonas aeruginosa; test: Clinical cure / clinical failure in CKD patients treated with intravenous CMS; assay type: in vivo
# Protocol: We conducted a prospective observational study in a cohort of patients with CKD and infections caused by extensively drug-resistant P. aeruginosa treated with intravenous CMS for at least 48 h. The study was carried out at Hospital del Mar, a tertiary care university hospital in Barcelona (Spain), from January 2010 to August 2018. The study was approved by the local ethics committee (Comité Ètic d’Investigació Clínica del Parc de Salut Mar. Approval number 2011/4501/I). Exclusion criteria were age <18 years, pregnancy, and breast-feeding during the study period. A pharmacy-generated alarm system was used to identify patients under CMS treatment. The study investigators performed the assessment from the first day of the treatment and informed consent was obtained from all participants or their legal representatives.
# (§1) CKD was defined as kidney damage or GFR <60 mL/min/1.73 m^2 for 3 months or more, irrespective of cause. Infections were defined according to the Centers for Disease Control and Prevention. Clinical failure was defined as a lack of improvement in patients or in at least one of the initial symptoms, worsening or death. Clinical cure was defined as either the absence of symptoms or as a consistent improvement in the signs and symptoms of the infection. Thirty-day all-cause mortality was considered as death from any cause during the 30 days following EOT. Combined antibiotic treatment consisted of CMS plus meropenem or CMS plus amikacin.
# The dosage regimen and dose adjustments were determined by the treating physician. Since this study was performed over more than 8 years, colistin daily doses varied during this time. From 2010 to 2014, dose adjustments were made according to the package insert’s recommended dosing as follows: GFR ≥76 mL/min/1.73 m^2, 4–6 million IU daily in three doses; GFR 40–75 mL/min/1.73 m^2, 2–3 million IU daily in two doses; GFR 25–40 mL/min/1.73 m^2, 1.5–2 million IU daily divided in one or two doses and; GFR <25 mL/min/1.73 m^2, 0.6–1 million IU daily every 36 h. In 2014, a new protocol based on our previous experience was implemented in our center and CMS was adjusted as follows: GFR ≥90 mL/min/1.73 m^2, 9 million IU daily in three doses; GFR 50–89 mL/min/1.73 m^2, 3 million IU every 12 h, GFR 10–49 mL/min/1.73 m^2, 3 million IU per day; GFR ≤10 mL/min/1.73 m^2, 2 million IU/day. However, the final dose was chosen by the treating physician. CMS (colistimethate formulation for intravenous use, GES Genéricos Españoles®, Las Rozas, Spain was diluted in 100 mL of physiological saline before intravenous administration over 30 min. Each vial contained 1 million IU of CMS (equivalent to 80 mg CMS).
# [5] = 30-day all-cause mortality in CMS-treated CKD patients; assay type: in vivo, human
# Protocol: as §1
# [6] = in vivo
# Protocol: as §2, §3
# [7] = human, in vivo, iv
# [8] = human, in vivo; cited from earlier work
# Protocol: Recent toxicodynamic studies performed in the general population indicate that the risk of nephrotoxicity in patients receiving CMS increases with plasma colistin concentration exceeding 2.5 mg/L [13, 15]. This point, together with the lack of information on the minimum inhibitory concentrations (MIC) at the beginning of CMS treatment, have led to consideration of an average Css,avg of 2 mg/L as a target when initiating therapy. […] Rates of nephrotoxicity in patients treated with CMS range from 20% to 60% according to recent studies using standardized criteria to evaluate nephrotoxicity. Even though WRF was reversible in more than 50% of patients, the diagnosis and management of this complication during CMS treatment is a challenge in daily clinical practice, since nephrotoxicity is potentially related to worse clinical outcomes. In two previous studies by our group, the pre ...
# [9] = Garonzik et al. pharmacokinetic study, ref [8]
# [10] = diagnosis SSTI (skin and soft tissue infection)
# [11] = diagnosis UTI (urinary tract infection)
compound,measurement,setting,value
CC[C@H](C)CCCCC(=O)N[C@@H](CCN)C(=O)N[C@H](C(=O)N[C@@H](CCN)C(=O)N[C@H]1CCNC(=O)[C@H]([C@@H](C)O)NC(=O)[C@H](CCN)NC(=O)[C@H](CCN)NC(=O)[C@H](CC(C)C)NC(=O)[C@@H](CC(C)C)NC(=O)[C@H](CCN)NC1=O)[C@@H](C)O [colistin] (X1-[Dab]T[Dab][Dab][Dab][dL]L[Dab][Dab]T; lactam 4-C),"Css,avg (colistin plasma concentration at steady-state), median (interquartile range)","[1]; all CKD patients n = 59, iv CMS, median daily dose 3 million IU, blood just before next dose on day 3–4, plasma, HPLC",900 ng/mL
same,"Css,avg","[1]; patients with clinical cure (n = 43), unit printed in Table 1 only",800 ng/mL
same,"Colistin Css,avg, median",[2]; [9],2360 ng/mL
same,"Colistin Css,avg, range",[2]; [9],480 to 9380 ng/mL
same,Colistin plasma concentration in previous studies in the general population,"[2]; IQR 0.11–5.99, ref [7],[13]",1.06
same,Half-life,"[2]; assumed for steady state on day 3–4, ref [10]",approximately 14 h
same,OR of Css as independent risk factor for colistin-associated nephrotoxicity at the end of treatment,"[3]; 95% CI 1.02–10.1, p = 0.047",3.21
colistimethate sodium [CMS],"Clinical cure, patients","[4]; 43 of 59 CKD patients, iv CMS, XDR P. aeruginosa infections",72.9%
same,Patients with clinical cure,[4]; [10],3 (60) n (%)
same,Patients with clinical failure,[4]; [10],2 (40) n (%)
same,Patients with clinical cure,[4]; [11],15 (93.6) n (%)
same,Patients with clinical failure,[4]; [11],1 (6.25) n (%)
same,Patients with clinical cure,[4]; diagnosis bacteremia,3 (100) n (%)
same,Patients with clinical failure,[4]; diagnosis bacteremia,0 (0) n (%)
same,Patients with clinical cure,[4]; diagnosis others,4 (57.1) n (%)
same,Patients with clinical failure,[4]; diagnosis others,3 (42.9) n (%)
same,Patients with clinical cure,[4]; diagnosis pneumonia,7 (50) n (%)
same,Patients with clinical failure,[4]; diagnosis pneumonia,7 (50) n (%)
same,Patients with clinical cure,[4]; diagnosis tracheobronchitis,11 (78.6) n (%)
same,Patients with clinical failure,[4]; diagnosis tracheobronchitis,3 (21.43) n (%)
same,30-day all-cause mortality,[5]; patients with clinical failure (n = 16),13 (81.3) n (%)
same,30-day all-cause mortality,[5]; patients without nephrotoxicity at EOT (n = 39),10 (25.64) n (%)
same,"GFR at EOT, median (interquartile range)",[6],30.1 (6.51–81.4) mL/min/1.73 m^2
same,Incidence of WRF at EOT,[6],33.9%
same,Recovery of baseline renal function,[6],10 (52.6) n (%)
same,WRF (worsened renal function) at the end of treatment,[6],20 (33.9) n (%)
same,"WRF at EOT, RIFLE class F (Failure)",[6],3 (15) n (%)
same,"WRF at EOT, RIFLE class I (Injury)",[6],10 (50) n (%)
same,"WRF at EOT, RIFLE class R (Risk)",[6],3 (15) n (%)
same,"WRF reversible, patients",[6],52.6%
same,Neurotoxicity,[7],none of the patients in this cohort developed neurotoxicity
same,CMS dose renally excreted in the urine,"[2]; during the first 24 h after dosing, ref [21]",about 60%
same,Urinary excretion of CMS after intravenous administration,"[2]; patients, within the first 6 h, ref [22]",rapid urinary excretion
same,Rates of nephrotoxicity in patients treated with CMS,[8],20-60%
same,OR of DOT (days of CMS treatment) as risk factor for colistin-associated nephrotoxicity at the end of treatment,[3]; p = 0.069,1.11
